According to patent publication US20080279924A1, “HLA class I A2 tumor associated antigen peptides and vaccine compositions” (priority 1999, published 2008):

Columns and labels:
[1] = test system: PBMC from healthy donors; format: cell-based, human
[2] = test system: HLA-DR molecules; conditions: cited from earlier work

Row | Substance | donors with primary T cell responses [1] | antigen concentration at which the 10,000 cpm proliferation level was reached [1] | number of DR molecules bound of DR molecules tested [2]
1 | aKXVAAWTLKAAa-NH2 [PADRE] | all three donors | – | –
2 | QYIKANSKFIGITE [Epitope 553.01] | 2 out of 3 | about 10,000 ng/ml | seven of 16
